Experimental data reported in patent EP4772510A2, “BENZAZEPINONE COMPOUND AND USE THEREOF” (HANGZHOU BIO-SINCERITY PHARMA-TECHCO., LTD., priority 2023, dated 2025).

Tests used:
[1] = Pharmacokinetic experiment in SD rats; conditions: p.o, 5 mg/kg vs i.v, 0.5 mg/kg
Description: (§1) Example 59: Pharmacokinetic Experiment of Compounds in SD Rats
(§2) SD rats, male, 6-8 weeks old, purchased from Zhejiang Vital River Laboratory Animal Technology Co., Ltd., production license No.: SCXK (Zhejiang) 2019-0001. The animals were maintained in an SPF-grade animal room of Hangzhou Bio-Sincerity Pharma-Tech Co., Ltd., with the experimental animal use license No. of SYXK (Zhejiang) 2021-0014. The animals were used after being acclimatized for at least one week. All experiments were performed in strict compliance with the regulations on experimental animals.
(§3) Four hours after administration, food was provided.
(§4) After administration to SD rats, about 300 µL of blood was collected from the orbit of each animal and anticoagulated with EDTA-Na2. […] The collected blood was placed in an ice bath and centrifuged within 1 h to separate plasma (centrifugation conditions: 2000× g, 10 min, 4 °C). 50 µL of plasma sample was taken, subjected to protein precipitation, and then assayed by UHPLC-MS. The assay data were analyzed and processed using WinNonLin8.1 pharmacokinetic software to obtain pharmacokinetic parameters.

in vivo = conditions: male, SD, rat, plasma
Description: as §1, §2, §3, §4

U937 cells = experiment: Inhibition of TNF-α-induced necroptosis of U937 cells (CCK-8 assay); type: cell-based, human; conditions: Homo sapiens, U-937, TNF-α 20 ng/mL + BV6 2 µM + Z-VAD-FMK 20 µM, 18 h
In short: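 U937 cells (3.6 × 10^4/well) rested 6 h, then exposed to TNF-α 20 ng/mL, BV6 2 µM and Z-VAD-FMK 20 µM plus compound (8-point 3-fold series, 1000–0.46 nM, duplicate) for 18 h. Viability by CCK-8, absorbance at 450 nm after 2-4 h at 37 °C; EC50 calculated.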

HT-29 cells = experiment: Inhibition of TNF-α-induced necroptosis of HT-29 cells (SRB method); type: cell-based, human; conditions: Homo sapiens, HT-29, TNF-α 20 ng/mL + BV6 2 µM + Z-VAD-FMK 20 µM, 18 h
In short: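 HT-29 cells (3 × 10^4/well, 24 h) were treated 18 h with compound (8 three-fold dilutions, 1000.00-0.46 nM, duplicate) plus TNF-α 20 ng/mL, BV6 2 µM and Z-VAD-FMK 20 µM final, at 37 °C. Viability was read by SRB absorbance; EC50 values were fitted.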

Structure (SMILES) | EC50 (U937 cells) [nM] | EC50 (HT-29 cells) [nM] | also measured
O=C(NC1CCc2cccc3c2N(CC3)C1=O)c1ncn(Cc2c(F)cccc2F)n1 (stereo not drawn) [Example 13 in CN20191051 8248X, 1-(2,6-difluorobenzyl)-N-(4-oxo-1,2,3,4,6,7-hexahydroazepino[3,2,1-hi]indol-3-yl)-1H-1,2,4-triazole-3-carboxamide, reference compound] | – | – | Fabs (%) [1]: 12.55 ± 6.41%; AUC(0-t) (in vivo; intravenous, 0.5 mg/kg): 0.271 ± 0.038 µg·h/mL; Cmax (in vivo; intravenous, 0.5 mg/kg): 0.983 ± 0.106 µg/mL; clearance (in vivo; intravenous, 0.5 mg/kg): 1.86 ± 0.268 L/h/kg; half-life (in vivo; intravenous, 0.5 mg/kg): 26.4 ± 15.6 min; AUC(0-t) (in vivo; oral, 5 mg/kg): 0.34 ± 0.174 µg·h/mL; CL/F (in vivo; oral, 5 mg/kg): 0.502 ± 0.241 L/h/kg; Cmax (in vivo; oral, 5 mg/kg): 0.467 ± 0.215 µg/mL; half-life (in vivo; oral, 5 mg/kg): 20.4 ± 8.4 min
O=C(NC1CCc2cc(C#Cc3cnn(C(F)F)c3)cc3c2N(CC3)C1=O)c1ncn(Cc2ccc(F)c(F)c2)n1 (stereo not drawn) [III-23, 1-(3,4-difluorobenzyl)-N-(9-((1-(difluoromethyl)-1H-pyrazol-4-yl)ethynyl)-4-oxo-1,2,3,4,6,7-hexahydroazepino[3,2,1-hi]indol-3-yl)-1H-1,2,4-triazole-3-carboxamide] | 10 to 100 | 10 to 100 | –
O=C(NC1CCc2cc(C#Cc3cnn(C(F)F)c3)cc3c2N(CC3)C1=O)c1ncn(Cc2ccc(F)cc2)n1 (stereo not drawn) [III-24, N-(9-((1-(difluoromethyl)-1H-pyrazol-4-yl)ethynyl)-4-oxo-1,2,3,4,6,7-hexahydroazepino[3,2,1-hi]indol-3-yl)-1-(4-fluorobenzyl)-1H-1,2,4-triazole-3-carboxamide] | 5 to 10 | 10 to 100 | –
O=C(NC1CCc2cc(C#Cc3cnn4c3COCC4)cc3c2N(CC3)C1=O)c1ncn(Cc2c(F)cccc2F)n1 (stereo not drawn) [III-27, 1-(2,6-difluorobenzyl)-N-(9-((6,7-dihydro-4H-pyrazolo[5,1-c] [1,4]oxazin-3-yl)ethynyl)-4-oxo-1,2,3,4,6,7-hexahydroazepino[3,2,1-hi]indol-3-yl)-1H-1,2,4-triazole-3-carboxamide] | < 5 | < 5 | –
C=Cn1ncc(C#Cc2cc3c4c(c2)CCN4C(=O)C(NC(=O)c2ncn(Cc4c(F)cccc4F)n2)CC3)c1C=O (stereo not drawn) [III-28, 1-(2,6-difluorobenzyl)-N-(9-((5-formyl-1-vinyl-1H-pyrazol-4-yl)ethynyl)-4-oxo-1,2,3,4,6,7-hexahydroazepino[3,2,1-hi]indol-3-yl)-1H-1,2,4-triazole-3-carboxamide] | < 5 | < 5 | –
O=C(NC1CCc2cc(C#Cc3cnn(C4COC4)c3)cc3c2N(CC3)C1=O)c1ncn(Cc2c(F)cccc2F)n1 (stereo not drawn) [III-29, 1-(2,6-difluorobenzyl)-N-(9-((1-(oxetan-3-yl)-1H-pyrazol-4-yl)ethynyl)-4-oxo-1,2,3,4,6,7-hexahydroazepino[3,2,1-hi]indol-3-yl)-1H-1,2,4-triazole-3-carboxamide] | < 5 | < 5 | –
O=C(NC1CCc2cc(C#Cc3cnn(C4CCC4)c3)cc3c2N(CC3)C1=O)c1ncn(Cc2c(F)cccc2F)n1 (stereo not drawn) [III-30, N-(9-((1-cyclobutyl-1H-pyrazol-4-yl)ethynyl)-4-oxo-1,2,3,4,6,7-hexahydroazepino[3,2,1-hi]indol-3-yl)-1-(2,6-difluorobenzyl)-1H-1,2,4-triazole-3-carboxamide] | < 5 | < 5 | –
Cn1cc(C#Cc2cc3c4c(c2)CCN4C(=O)C(NC(=O)c2ncn(Cc4ccccn4)n2)CC3)cn1 (stereo not drawn) [III-31, N-(9-((1-methyl-1H-pyrazol-4-yl)ethynyl)-4-oxo-1,2,3,4,6,7-hexahydroazepino[3,2,1-hi]indol-3-yl)-1-(pyridin-2-ylmethyl)-1H-1,2,4-triazole-3-carboxamide] | 5 to 10 | < 5 | –
Cn1cc(C#Cc2cc3c4c(c2)CCN4C(=O)C(NC(=O)c2ncn(Cc4ccccc4)n2)CC3)cn1 (stereo not drawn) [III-32, 1-benzyl-N-(9-((1-methyl-1H-pyrazol-4-yl)ethynyl)-4-oxo-1,2,3,4,6,7-hexahydroazepino[3,2,1-hi]indol-3-yl)-1H-1,2,4-triazole-3-carboxamide] | < 5 | < 5 | –
Cn1cc(C#Cc2cc3c4c(c2)CCN4C(=O)C(NC(=O)c2ccn(Cc4c(F)cccc4F)n2)CC3)cn1 (stereo not drawn) [XIII-1, 1-(2,6-difluorobenzyl)-N-(9-((1-methyl-1H-pyrazol-4-yl)ethynyl)-4-oxo-1,2,3,4,6,7-hexahydroazepino[3,2,1-hi]indol-3-yl)-1H-pyrazole-3-carboxamide] | 10 to 100 | 10 to 100 | –
